system: NLRP3 inflammasome pathway; assay: NLRP3 inflammasome pathway activation assay, MSU stimulation, IL-1β release (AlphaLISA); assay type: cell-based; conditions: PMA-differentiated, LPS-primed human monocyte-like cells, MSU 150 µg/ml for 3 h
Experimental: The following assays were used to determine the inhibitory activity of test compounds on the NLRP3 inflammasome pathway using common stimuli Nigericin (Invivogen) or monosodium urate crystals (MSU) (Invivogen).
Human monocyte-like cells were cultured in RPMI-1640 Glutamax medium supplemented with 10% heat inactivated FCS and 50 U/ml penicillin-streptomycin (Life Technologies).
Human monocyte-like cells were seeded at 75000 per well in a 96-well plate and were differentiated overnight into macrophages with 10 ng/ml PMA (Phorbol Myristate Acetate). The following day, medium containing 10 ng/ml LPS (Lipopolysaccharide) were added. After 3 hours of LPS priming, concentrations of test compound in the range from 100 µM to 6 nM were added 30 min prior to NLRP3 inflammasome pathway stimulation with Nigericin 3.75 µM or MSU 150 µg/ml for 3 h.
For IL-1β quantification, supernatants were analyzed using AlphaLISA kits according to the manufacturer’s instructions (Perkin Elmer AlphaLISA AL220F). Briefly, in a 384-well OptiPlate™ microplate, 5 µl of sample was mixed, with 20 µl of AlphaLISA Anti-Analyte Acceptor beads (10 µg/mL final) and Biotinylated Antibody Anti-Analyte (1 nM final). Then, incubated 60 minutes at RT, then 25 µL of 2X SA-Donor beads (40 µg/mL final) were added and incubated 30 minutes at RT in the dark. Reading was done using an EnVision-Alpha Reader (PerkinElmer).
IC50(concentration corresponding to 50% inhibition) were determined using GraphPad Prism 8.

| Structure (SMILES) | IC50 |
| --- | --- |
| CC(C)OC(=O)C1(c2cc(C(C)(C)O)on2)CN=C(Nc2c3c(cc4c2CCC4)CCC3)O1 (racemic) [Example 17, isopropyl 2-((1,2,3,5,6,7-hexahydro-s-indacen-4-yl)amino)-5-(5-(2-hydroxypropan-2-yl)isoxazol-3-yl)-4,5-dihydrooxazole-5-carboxylate] | < 1 µM |
| CC(C)(O)c1cc(C2(C(=O)OC3CCCC3)CN=C(Nc3c4c(cc5c3CCC5)CCC4)O2)no1 (racemic) [Example 19, cyclopentyl 2-((1,2,3,5,6,7-hexahydro-s-indacen-4-yl)amino)-5-(5-(2-hydroxypropan-2-yl)isoxazol-3-yl)-4,5-dihydrooxazole-5-carboxylate] | < 1 µM |
| CCOC(=O)C1(c2cc(C(C)C)on2)CN=C(Nc2c3c(cc4c2CCC4)CCC3)O1 (racemic) [Example 21A, ethyl 2-((1,2,3,5,6,7-hexahydro-s-indacen-4-yl)amino)-5-(5-isopropylisoxazol-3-yl)-4,5-dihydrooxazole-5-carboxylate] | < 1 µM |
| CCOC(=O)C1(c2ccon2)CN=C(Nc2c3c(cc4c2CCC4)CCC3)O1 (racemic) [Example 21B, ethyl 2-((1,2,3,5,6,7-hexahydro-s-indacen-4-yl)amino)-5-(isoxazol-3-yl)-4,5-dihydrooxazole-5-carboxylate] | < 1 µM |
| CC(C)c1cc(C2(C(=O)O)CN=C(Nc3c4c(cc5c3CCC5)CCC4)O2)no1 (racemic) [Example 27, 2-((1,2,3,5,6,7-hexahydro-s-indacen-4-yl)amino)-5-(5-isopropylisoxazol-3-yl)-4,5-dihydrooxazole-5-carboxylate] | 1 to 10 µM |
| CCOC(=O)C1(c2cnc(OC)nc2)CN=C(Nc2c3c(cc4c2CCC4)CCC3)O1 (racemic) [Example 32, ethyl 2-((1,2,3,5,6,7-hexahydro-s-indacen-4-yl)amino)-5-(2-methoxypyrimidin-5-yl)-4,5-dihydrooxazole-5-carboxylate] | < 1 µM |
| CCOC(=O)C1(c2cccs2)CN=C(Nc2c3c(cc4c2CCC4)CCC3)O1 (racemic) [Example 34, ethyl 2-((1,2,3,5,6,7-hexahydro-s-indacen-4-yl)amino)-5-(thiophen-2-yl)-4,5-dihydrooxazole-5-carboxylate] | 1 to 10 µM |
| CCOC(=O)C1(c2ccco2)CN=C(Nc2c3c(cc4c2CCC4)CCC3)O1 (racemic) [Example 36, ethyl 5-(furan-2-yl)-2-((1,2,3,5,6,7-hexahydro-s-indacen-4-yl)amino)-4,5-dihydrooxazole-5-carboxylate] | 1 to 10 µM |
| CCOC(=O)C1(c2nccn2C)CN=C(Nc2c3c(c(F)c4c2CCC4)CCC3)O1 (racemic) [Example 37, ethyl 2-((8-fluoro-1,2,3,5,6,7-hexahydro-s-indacen-4-yl)amino)-5-(1-methyl-1H-imidazol-2-yl)-4,5-dihydrooxazole-5-carboxylate] | < 1 µM |
| CCOC(=O)C1(C2CCCO2)CN=C(Nc2c3c(cc4c2CCC4)CCC3)O1 (racemic) [Example 40, ethyl 2-((1,2,3,5,6,7-hexahydro-s-indacen-4-yl)amino)-5-(tetrahydrofuran-2-yl)-4,5-dihydrooxazole-5-carboxylate] | < 1 µM |
| CCOC(=O)C1(c2ccno2)CN=C(Nc2c3c(cc4c2CCC4)CCC3)O1 (racemic) [Example 44, ethyl 2-((1,2,3,5,6,7-hexahydro-s-indacen-4-yl)amino)-5-(isoxazol-5-yl)-4,5-dihydrooxazole-5-carboxylate] | < 1 µM |
| COC(=O)C1(c2cc(OC)on2)CN=C(Nc2c3c(cc4c2CCC4)CCC3)O1 (racemic) [Example 48, methyl 2-((1,2,3,5,6,7-hexahydro-s-indacen-4-yl)amino)-5-(5-methoxyisoxazol-3-yl)-4,5-dihydrooxazole-5-carboxylate] | < 1 µM |
| CCOC(=O)C1(c2cnccn2)CN=C(Nc2c3c(cc4c2CCC4)CCC3)O1 (racemic) [Example 49, ethyl 2-((1,2,3,5,6,7-hexahydro-s-indacen-4-yl)amino)-5-(pyrazin-2-yl)-4,5-dihydrooxazole-5-carboxylate] | < 1 µM |
| CCOC(=O)C1(c2ccn(C(C)C)n2)CN=C(Nc2c3c(cc4c2CCC4)CCC3)O1 (racemic) [Example 54, ethyl 2-((1,2,3,5,6,7-hexahydro-s-indacen-4-yl)amino)-5-(1-isopropyl-1 H-pyrazol-3-yl)-4,5-dihydrooxazole-5-carboxylate] | < 1 µM |
| CCOC(=O)C1(c2nc(C(C)C)cs2)CN=C(Nc2c3c(cc4c2CCC4)CCC3)O1 (racemic) [Example 55, ethyl 2-((1,2,3,5,6,7-hexahydro-s-indacen-4-yl)amino)-5-(4-isopropylthiazol-2-yl)-4,5-dihydrooxazole-5-carboxylate] | < 1 µM |
| CC(C)(C)OC(=O)C1(c2ccon2)CN=C(Nc2c3c(cc4c2CCC4)CCC3)O1 (racemic) [Example 60, tert-butyl 2-((1,2,3,5,6,7-hexahydro-s-indacen-4-yl)amino)-5-(isoxazol-3-yl)-4,5-dihydrooxazole-5-carboxylate] | < 1 µM |
| COC(=O)C1(c2nccs2)CN=C(Nc2c3c(cc4c2CCC4)CCC3)O1 (racemic) [Example 62, methyl 2-((1,2,3,5,6,7-hexahydro-s-indacen-4-yl)amino)-5-(thiazol-2-yl)-4,5-dihydrooxazole-5-carboxylate] | < 1 µM |
| CCCOC(=O)C1(c2nccs2)CN=C(Nc2c3c(cc4c2CCC4)CCC3)O1 (racemic) [Example 65, propyl 2-((1,2,3,5,6,7-hexahydro-s-indacen-4-yl)amino)-5-(thiazol-2-yl)-4,5-dihydrooxazole-5-carboxylate] | < 1 µM |
| CCCCOC(=O)C1(c2nccs2)CN=C(Nc2c3c(cc4c2CCC4)CCC3)O1 (racemic) [Example 67, butyl 2-((1,2,3,5,6,7-hexahydro-s-indacen-4-yl)amino)-5-(thiazol-2-yl)-4,5-dihydrooxazole-5-carboxylate] | < 1 µM |
| CCCOC(=O)C1(c2cc(C(C)(C)O)on2)CN=C(Nc2c3c(cc4c2CCC4)CCC3)O1 (racemic) [Example 74, propyl 2-((1,2,3,5,6,7-hexahydro-s-indacen-4-yl)amino)-5-(5-(2-hydroxypropan-2-yl)isoxazol-3-yl)-4,5-dihydrooxazole-5-carboxylate] | < 1 µM |
| CCCCOC(=O)C1(c2cc(C(C)(C)O)on2)CN=C(Nc2c3c(cc4c2CCC4)CCC3)O1 (racemic) [Example 76, butyl 2-((1,2,3,5,6,7-hexahydro-s-indacen-4-yl)amino)-5-(5-(2-hydroxypropan-2-yl)isoxazol-3-yl)-4,5-dihydrooxazole-5-carboxylate] | < 1 µM |
| CCCCCOC(=O)C1(c2cc(C(C)(C)O)on2)CN=C(Nc2c3c(cc4c2CCC4)CCC3)O1 (racemic) [Example 79, pentyl 2-((1,2,3,5,6,7-hexahydro-s-indacen-4-yl)amino)-5-(5-(2-hydroxypropan-2-yl)isoxazol-3-yl)-4,5-dihydrooxazole-5-carboxylate] | < 1 µM |
| CC(C)(C)OC(=O)C1(c2cc(C(C)(C)O)on2)CN=C(Nc2c3c(cc4c2CCC4)CCC3)O1 (racemic) [Example 82, tert-butyl 2-((1,2,3,5,6,7-hexahydro-s-indacen-4-yl)amino)-5-(5-(2-hydroxypropan-2-yl)isoxazol-3-yl)-4,5-dihydrooxazole-5-carboxylate] | < 1 µM |
| COC(=O)C1(c2ccon2)CN=C(Nc2c3c(cc4c2CCC4)CCC3)O1 (racemic) [Example 84, methyl 2-((1,2,3,5,6,7-hexahydro-s-indacen-4-yl)amino)-5-(isoxazol-3-yl)-4,5-dihydrooxazole-5-carboxylate] | < 1 µM |
| COC(=O)C1(c2ccno2)CN=C(Nc2c3c(cc4c2CCC4)CCC3)O1 (racemic) [Example 87, methyl 2-((1,2,3,5,6,7-hexahydro-s-indacen-4-yl)amino)-5-(isoxazol-5-yl)-4,5-dihydrooxazole-5-carboxylate] | < 1 µM |
| CCCCCOC(=O)C1(c2ccno2)CN=C(Nc2c3c(cc4c2CCC4)CCC3)O1 (racemic) [Example 92, pentyl 2-((1,2,3,5,6,7-hexahydro-s-indacen-4-yl)amino)-5-(isoxazol-5-yl)-4,5-dihydrooxazole-5-carboxylate] | < 1 µM |
| CCOC(=O)C1(c2nccs2)CN=C(Nc2c3c(cc4c2CCC4)CCC3)O1 (single isomer, unassigned) [Example 21, ethyl 2-((1,2,3,5,6,7-hexahydro-s-indacen-4-yl)amino)-5-(thiazol-2-yl)-4,5-dihydrooxazole-5-carboxylate] | < 1 µM |
| CCOC(=O)C1(c2ccns2)CN=C(Nc2c3c(cc4c2CCC4)CCC3)O1 (single isomer, unassigned) [Example 43, ethyl 2-((1,2,3,5,6,7-hexahydro-s-indacen-4-yl)amino)-5-(isothiazol-5-yl)-4,5-dihydrooxazole-5-carboxylate] | < 1 µM |
| COC(=O)C1(c2cc(C(C)(C)O)on2)CN=C(Nc2c3c(cc4c2CCC4)CCC3)O1 (single isomer, unassigned) [Example 72, methyl 2-((1,2,3,5,6,7-hexahydro-s-indacen-4-yl)amino)-5-(5-(2-hydroxypropan-2-yl)isoxazol-3-yl)-4,5-dihydrooxazole-5-carboxylate] | < 1 µM |
